We go through nine compounds from ChEMBL document CHEMBL1201862, “PubChem BioAssay data set” (2004).

Common to all, as to test: growth of human tumour cells (NCI), 48 h
In assay [1] the test system is Malme-3M.
The subject of assay [2] is SF-539.
Assay [3] deals with OVCAR-4.
Assay [4] relates to SK-MEL-5.
Assay [5] relates to HOP-62.
The test system of assay [6] is OVCAR-5.
Assay [7] concerns SNB-19.
The test system of assay [8] is MDA-N.
The test system of assay [9] is HCT-116.
The test system of assay [10] is HCT-15.
Assay [11] relates to MCF7.
Assay [12] has as its system U-251.
For assay [13], the system named is LOX IMVI.
Assay [14] has as its system SK-MEL-2.
The test system of assay [15] is UACC-257.
The test system of assay [16] is Hs-578T.
For assay [17], the system named is MDA-MB-231.
Assay [18] concerns OVCAR-8.
Assay [19] deals with MOLT-4.
Assay [20] relates to RXF 393.

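The compound was tested at five concentrations on cells cultured in 96-well plates, with a 48-hour exposure period. The concentration for 50% growth inhibition is given as GI50.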 Activity calls are given as the source filed them. Rule as the data show it: active = GI50 up to about 1.1 µM and inactive = higher.

With `OCC1OC(O)C(/N=C\c2ccc3c(c2)OCO3)C(O)C1O` (stereo not given), the GI50 in assay [1], in assay [2], in assay [3], in assay [4], in assay [5] and in [6] was > 100 µM (inactive) each time. Also, the GI50 is > 100 µM (inactive) in assay [7]; > 100 µM (inactive) in [8]; > 100 µM (inactive) in [9]; over 100 µM in assay [10]; > 100 µM (inactive) in assay [11]; > 100 µM (inactive) in [12]. Also, the GI50 in [13], in assay [14], in [15], in [16], in assay [17] and in assay [18] was > 100 µM (inactive) throughout. Moreover, the GI50 in assay [19] and in [20] was > 100 µM (inactive) each time.
Turning to `CN(C)Cc1cc(/N=N/c2ccc(Cl)cc2)ccc1O`, the GI50 in assay [1] is 14 µM (inactive); in assay [2], 18.1 µM (inactive); in assay [3], 16.5 µM (inactive); in assay [4] it was 14.4 µM (inactive); in assay [5], 10.1 µM (inactive); in assay [6] it was 12.1 µM (inactive). Besides, the GI50 in assay [7] is 17.3 µM (inactive); in assay [8], 19.5 µM (inactive); in assay [9], 16.7 µM (inactive); in assay [10] it was 15.1 µM; in assay [11] it was 17.4 µM (inactive); in [12], 17.4 µM (inactive). Moreover, the GI50 in assay [13] is 11.4 µM (inactive); in assay [14], 21.3 µM (inactive); in assay [15] it was 18.7 µM (inactive); in assay [16] it was 15 µM (inactive); in assay [17], 16.1 µM (inactive); in [18] it was 16.9 µM (inactive). Besides, the GI50 is 15.2 µM (inactive) in assay [19] and 13.9 µM (inactive) in assay [20].
For the compound `Cc1nnc2sc(Cl)nn12`, the GI50 was 22.1 µM (inactive) in [1]; 20.9 µM (inactive) in assay [2]; 16.8 µM (inactive) in assay [3]; 12.6 µM (inactive) in [4]; 38 µM (inactive) in [5]; 23 µM (inactive) in assay [6]. In addition, the GI50 in assay [7] was 44.8 µM (inactive); in assay [8], 20.2 µM (inactive); in assay [9], 8.95 µM (inactive); in assay [10], 19.3 µM; in [11], 13.3 µM (inactive); in assay [12], 16.4 µM (inactive). Moreover, the GI50 is 10 µM (inactive) in assay [13]; 24.1 µM (inactive) in assay [14]; > 10 µM (inactive) in assay [15]; 39.5 µM (inactive) in assay [16]; 22.1 µM (inactive) in assay [17]; 32.9 µM (inactive) in assay [18]. Also, the GI50 is 5.65 µM (inactive) in assay [19] and > 10 µM (inactive) in [20].
Regarding `O=C(/C=C/c1cccc(Oc2ccccc2)c1)NCc1ccc(C(=O)NCc2ccccc2)cc1`, the GI50 in assay [1] was 41.3 µM (inactive); in assay [2] it was 0.865 µM (active); in assay [3], 31 µM (inactive); in assay [4], > 100 µM (inactive); in [5], 2.96 µM (inactive); in assay [6], > 100 µM (inactive). Moreover, the GI50 is 32.4 µM (inactive) in assay [7]; > 100 µM (inactive) in [8]; 50.6 µM (inactive) in assay [9]; over 100 µM in assay [10]; > 100 µM (inactive) in assay [11]; 38.1 µM (inactive) in [12]. The GI50 was > 100 µM (inactive) in assay [13]; 26 µM (inactive) in [14]; > 100 µM (inactive) in assay [15]; > 100 µM (inactive) in assay [16]; 52.2 µM (inactive) in assay [17]; 14.1 µM (inactive) in assay [18]. The GI50 in assay [19] was > 100 µM (inactive); in [20] it was 12.2 µM (inactive).
Regarding `CCOc1cc(NC(C)=O)ccc1C(=O)NNC(=O)c1ccccc1OC(C)=O`, the GI50 is 21.7 µM (inactive) in assay [1]; 12.5 µM (inactive) in assay [2]; 4.32 µM (inactive) in assay [3]; 5.78 µM (inactive) in [4]; 8.61 µM (inactive) in assay [5]; 10.2 µM (inactive) in assay [6]. In addition, the GI50 in assay [7] is 21.9 µM (inactive); in assay [8], 12.5 µM (inactive); in assay [9], 3.59 µM (inactive); in assay [10], 4.37 µM; in assay [11], 6.07 µM (inactive); in assay [12] it was 4.69 µM (inactive). Further, the GI50 in assay [13] was 5.45 µM (inactive); in assay [14] it was 24.3 µM (inactive); in assay [15], 4.92 µM (inactive); in assay [16], > 52 µM (inactive); in assay [17] it was 4.42 µM (inactive); in assay [18], 6.3 µM (inactive). Also, the GI50 in assay [19] was 0.995 µM (active); in assay [20], 3.41 µM (inactive).
Consider `CC(=O)Oc1c2c(c(CC=C(C)C)c3c1C(=O)C1=C[C@@H]4CC5C(C)(C)OC(C/C=C(/C)C(=O)O)(C4=O)[C@@]15O3)OC(C)(CCC=C(C)C)C=C2` (stereo not given in full), for which the GI50 in [1] is 0.29 µM (active); in assay [2] it was 0.0986 µM (active); in [3] it was 0.177 µM (active); in [4], 0.378 µM (active); in assay [5], 0.832 µM (active); in assay [6] it was 0.361 µM (active). The GI50 in assay [7] was 0.269 µM (active); in assay [8], 0.16 µM (active); in [9], 0.149 µM (active); in assay [10], 0.244 µM; in assay [11], 0.173 µM (active); in assay [12], 0.0918 µM (active). Also, the GI50 is 0.104 µM (active) in assay [13]; 0.305 µM (active) in assay [14]; 0.384 µM (active) in assay [15]; 0.337 µM (active) in assay [16]; 0.227 µM (active) in [17]; 0.184 µM (active) in assay [18]. For the same compound, the GI50 in assay [19] is 0.0769 µM (active); in [20], 0.144 µM (active).
Turning to `COC(=O)/C=C\C(C#N)(C#N)/N=C/c1ccccc1`, the GI50 is 2.21 µM (inactive) in assay [1]; 3.78 µM (inactive) in assay [2]; 4.22 µM (inactive) in assay [3]; 13.5 µM (inactive) in [4]; 18.5 µM (inactive) in [5]; 19 µM (inactive) in assay [6]. Further, the GI50 in assay [7] was 23.9 µM (inactive); in assay [8] it was 4.44 µM (inactive); in assay [9] it was 1.77 µM (inactive); in assay [10], 2.92 µM; in assay [11] it was 2.09 µM (inactive); in [12] it was 17.7 µM (inactive). The GI50 in [13] is 2.32 µM (inactive); in assay [14], 16.7 µM (inactive); in [15] it was 5.36 µM (inactive); in assay [16] it was 12.2 µM (inactive); in assay [17], 15.6 µM (inactive); in assay [18] it was 1.91 µM (inactive). The GI50 in assay [19] is 0.953 µM (active); in assay [20], 1.94 µM (inactive).
On to `NC(Cc1ccccc1)(C(=O)O)C(=O)O`, for which the GI50 in [1], in assay [2], in assay [3], in [4], in assay [5] and in [6] was > 100 µM (inactive) each time. Also, the GI50 in [7] was > 100 µM (inactive); in assay [8], > 100 µM (inactive); in assay [9] it was > 100 µM (inactive); in [10] it was over 100 µM; in [11], > 100 µM (inactive); in [12], > 100 µM (inactive). For the same compound, the GI50 in assay [13], in [14], in assay [15], in [16], in assay [17] and in assay [18] was > 100 µM (inactive) in each case. Moreover, the GI50 in assay [19] and in assay [20] was > 100 µM (inactive) each time.
For `O=C(O)CCCc1ccc(N(CCCl)CCCl)cc1` [CHLORAMBUCIL], the GI50 in [1] is 70.3 µM (inactive); in assay [2] it was 22.9 µM (inactive); in [3], 136 µM (inactive); in assay [4], 88.5 µM (inactive); in [5], 36.1 µM (inactive); in assay [6], 97.1 µM (inactive). For the same compound, the GI50 in [7] is 96.2 µM (inactive); in assay [8] it was 117 µM (inactive); in assay [9], 106 µM (inactive); in assay [10] it was 92.7 µM; in [11] it was 32.8 µM (inactive); in assay [12] it was 42.8 µM (inactive). For the same compound, the GI50 was 40.3 µM (inactive) in [13]; 155 µM (inactive) in [14]; 93.5 µM (inactive) in [15]; 189 µM (inactive) in assay [16]; 156 µM (inactive) in [17]; 83.2 µM (inactive) in assay [18]. Further, the figures for the GI50 in assay [19] and in assay [20] were 5.78 µM (inactive) and 33.2 µM (inactive), respectively.
